According to US20110281836A1, “Silent desensitizers of neuronal NACHR and methods of use thereof” (priority 2008, published 2011):

Experiments:
[1] = in vivo; cited from earlier work
[2] = tested on: α7 nAChRs; conditions: radioligand binding assays; cited from earlier work
[3] = molecular target: T1, α4β2 nAChRs (Rattus norvegicus, UniProt P09483+P12390); test: radioligand ([3H]epibatidine) competition binding, α4β2 nAChR
T1 construct: expressed in transfected cells; host or cells: HEK293 (KXα4β2)
Description: A. Cell Lines and Cell Culture. The cell lines KXα3β4R2, expressing rat α3β4 nAChRs, and KXα4β2, expressing rat α4β2 nAChRs, were established previously by stably transfecting human embryonic kidney 293 cells with combinations of rat nAChR subunit genes. These cell lines are maintained in minimum essential medium supplemented with 10% fetal bovine serum, 100 units/mL penicillin G, […] streptomycin, and 0.7 mg/mL G418 (Geneticin) at 37° C. with 5% CO2 in a humidified incubator. The cell line SH-EP1-pcDNA-hα4β2, expressing human α4β2 nAChRs, was described previously and are available. The SH-EP1-pcDNA-hα4β2 cells are grown in Dulbecco's modified Eagle's medium supplemented with 5% fetal bovine serum, 10% horse serum, 100 units/mL penicillin G, 100 μg/mL streptomycin, 320 μg/mL hygromycin B (Calbiochem, La Jolla, Calif.), 400 units/mL Zeocin at 37° C. with 5% CO2 in a humidified incubator.
B. nAChR Binding Affinity and Sub-type Selectivity Assay. The Ki values of compounds for binding to α3β4, α4β2 and other nAChR sub-types will be measured by competition experiments with [3H]epibatidine or other labeled ligands. Not intending to be bound by any one approach, one radioligand binding assay used for measuring the binding of [3H]epibatidine to nAChRs is described below.
In brief, cultured cells at above about 80% confluence will be removed from their flasks (80 cm^2) with a disposable cell scraper and will be placed in 10 mL of 50 mM Tris-HCl buffer, pH 7.4, 4° C. The cell suspension will be centrifuged at 10,000 g for 5 min and the pellet will be collected. For cells undergoing prolonged treatment with nicotinic agonists during culturing, the pellet will be washed two more times by centrifugation in fresh buffer to remove residual drug. The cell pellet will then homogenized in 10 mL of buffer with a Polytron homogenizer (12-mm aggregate, 26,000 rpm, 20 s; model PT2100; Kinematica, Basel, Switzerland) and will be centrifuged at 36,000 g for 10 min at 4° C. The membrane pellet will be resuspended in fresh buffer, and aliquots of the membrane preparation equivalent to 30 to 200 μg of protein will be used for binding assays. The concentration of [3H]epibatidine used will be 100 pM for competition binding assays and 2.4 nM, which is a saturating concentration for the α4β2 receptor subtype, for measuring receptor density. Nonspecific binding will be assessed in parallel incubations in the presence of 300 μM nicotine. Bound and free ligands will be separated by vacuum filtration through Whatman GF/C filters treated with 0.5% polyethylenimine. The filter-retained radioactivity will be measured by liquid scintillation counting. […] Data from saturation and competition binding assays will be analyzed using Prism 4 (GraphPad Software, San Diego, Calif.).

[4] = stability of the isolated HCl salt on exposure to air; assay type: physicochemical; conditions: white solid, larger scale
From the text: A gram-scale synthesis of sazetidine A is outlined in FIG. 1a. The Boc-protected azidityl methyl alcohol 2 and 3-bromo-5-hydroxy pyridine (3) are both commercially available. Treatment with PPh3 and DEAD according to the Mitsunobu protocol formed ether derivative 4 in 70% yield. Palladium-mediated coupling of the bromo-substituted pyridine 4 with 5-hexyn-1-ol under modified Sonogashira conditions furnished Boc-protected sazetidine A in 73% yield. Deprotection of the Boc-group with HCl was expected to give sazetidine A in salt form as published in the literature.

[5] = molecular target: T2, α4β2 nAChRs (Homo sapiens, UniProt P17787+P43681); conditions: cited from earlier work
T2 construct: expressed in transfected cells; host or cells: SH-EP1 (SH-EP1-pcDNA-hα4β2)

[6] = molecular target: T3, α3β4 nAChRs (Rattus norvegicus, UniProt P04757+P12392); conditions: concentrations up to 10 μM, even after preincubation; cited from earlier work
T3 construct: expressed in transfected cells; host or cells: HEK293 (KXα3β4R2)

[7] = molecular target: T3, α3β4 nAChRs; conditions: radioligand binding assays; cited from earlier work
[8] = molecular target: T2, α4β2 nAChRs; conditions: preincubated for 10 min with the cells; complete desensitization; cited from earlier work
[9] = molecular target: T3, α3β4 nAChRs; test: radioligand ([3H]epibatidine) competition binding, α3β4 nAChR
Description: (§1) A. Cell Lines and Cell Culture. The cell lines KXα3β4R2, expressing rat α3β4 nAChRs, and KXα4β2, expressing rat α4β2 nAChRs, were established previously by stably transfecting human embryonic kidney 293 cells with combinations of rat nAChR subunit genes. These cell lines are maintained in minimum essential medium supplemented with 10% fetal bovine serum, 100 units/mL penicillin G, […] streptomycin, and 0.7 mg/mL G418 (Geneticin) at 37° C. with 5% CO2 in a humidified incubator. The cell line SH-EP1-pcDNA-hα4β2, expressing human α4β2 nAChRs, was described previously and are available. […]
B. nAChR Binding Affinity and Sub-type Selectivity Assay. The Ki values of compounds for binding to α3β4, α4β2 and other nAChR sub-types will be measured by competition experiments with [3H]epibatidine or other labeled ligands. […]
In brief, cultured cells at above about 80% confluence will be removed from their flasks (80 cm^2) with a disposable cell scraper and will be placed in 10 mL of 50 mM Tris-HCl buffer, pH 7.4, 4° C. […] Nonspecific binding will be assessed in parallel incubations in the presence of 300 μM nicotine. […] The filter-retained radioactivity will be measured by liquid scintillation counting. […] Data from saturation and competition binding assays will be analyzed using Prism 4 (GraphPad Software, San Diego, Calif.).

[10] = molecular target: T2, α4β2 nAChRs; test: desensitizer test: 86Rb+ efflux after 10 min preincubation, α4β2 nAChR; assay type: cell-based
Description: as §1
C. nAChR Functional Assay. The agonist, antagonist and/or desitizer activity of compounds of the invention can be evaluated by measuring its blockade of nicotine-stimulated 86Rb+ efflux. […]
In brief, cells will be plated into 24-well plates coated with poly-D-lysine. […] Radioactivity of assay samples and lysates will be measured by liquid scintillation counting. Total loading (cpm) will be calculated as the sum of the assay sample and the lysate of each well. The amount of 86Rb+ efflux will be expressed as a percentage of 86Rb+ loaded. […] IC50 values will be determined by nonlinear least-squares regression analyses (GraphPad Software).
D. Measurement of Desensitization. Not intending to be bound by any one method, desensitization may be measured, for example, by the method described below. […]

With Clc1ccc(C2CC3CCC2N3)cn1 (centres unmarked) [Epibatidine] as the molecule, how does the analgesic potency [1] read?
Its analgesic potency is ~200 times that of morphine.

Which “selectivity, affinity at α4β2 compared to α7 nAChRs” value [2] does the source give for OCCCCC#Cc1cncc(OCC2CCN2)c1 (centres unmarked) [sazetidine A] here?
Its value is > 3,500 fold.

What about the Ki [3] of the same molecule?
Its Ki is 0.00041 µM.

And the “stability on exposure to air” value [4]?
Its value is “decomposition of the material to a yellow-brown wet solid”.

What about the “agonist activity at α4β2 nAChRs” value ([5]; added alone) of the same molecule?
Its value is “low agonist activity”.

What about the “antagonist activity at α4β2 receptors” value ([5]; added simultaneously with an agonist, such as nicotine) of the same molecule?
The value was “no typical antagonist activity”.

And the “effect on the function of α3β4 nAChRs” value [6]?
Its value is “no effect”.

What about the “selectivity, affinity at α4β2 compared to α3β4 nAChRs” value [7] of the same molecule?
The value was “greater than 10,000 fold”.

What about the EC50 [8] of the same molecule?
Its EC50 is 0.026 µM.

Which results are given for OCCCCc1cn(-c2cncc(OCC3CCN3)c2)nn1 (centres unmarked) [triazetidine O]?
Ki [3]: 0.00351 µM; decrease in Ki relative to sazetidine A ([3]; triazole in place of the alkynyl group): approximately 10 fold; selectivity for the α4β2 receptor ([3]; α4β2 over α3β4, from Ki values): 17,692 fold; Ki [9]: 62 µM; IC50 [10]: 0.1 µM
